Measured values as given in ChEMBL document CHEMBL4002588, “2,4-Disubstituted quinazolines as amyloid-β aggregation inhibitors with dual cholinesterase inhibition and antioxidant properties: Development and structure-activity relationship (SAR) studies” (Eur J Med Chem, 2017).
Active and inactive are the calls of the source. No cut-off for these calls is given here.

Tests used:
[1] = Antioxidant activity assessed as DPPH radical scavenging activity at 50 uM relative to control; assay type: functional
[2] = molecular target: T1, Cholinesterase (Homo sapiens, UniProt P06276)
Description: Inhibition of human BuChE using S-butyrylthiocholine iodide as substrate preincubated for 5 mins followed by substrate addition measured for 60 to 300 secs by Ellman's method

[3] = molecular target: Acetylcholinesterase (Homo sapiens, UniProt P22303)
Description: Inhibition of human AChE using acetylthiocholine iodide as substrate preincubated for 5 mins followed by substrate addition measured for 60 to 300 secs by Ellman's method

[4] = molecular target: T2, Amyloid-beta precursor protein (Homo sapiens, UniProt P05067); test: Inhibition of HFIP-induced human recombinant amyloid beta (1 to 40 residues) aggregation expressed in Escherichia coli at 25 uM measured over 24 hrs by ThT-based fluorescence spectroscopic method relative to control
[5] = molecular target: T2, Amyloid-beta precursor protein; test: Inhibition of HFIP-induced human recombinant amyloid beta (1 to 42 residues) aggregation expressed in Escherichia coli assessed as reduction in amyloid beta fibril load measured after 24 hrs by ThT fluorescence assay
[6] = molecular target: T2, Amyloid-beta precursor protein; test: Inhibition of HFIP-induced human recombinant amyloid beta (1 to 42 residues) aggregation expressed in Escherichia coli assessed as reduction in amyloid beta fibril load at 25 uM after 24 hrs by transmission electron microscopic method
[7] = molecular target: T2, Amyloid-beta precursor protein
Description: Inhibition of HFIP-induced human recombinant amyloid beta (1 to 40 residues) aggregation expressed in Escherichia coli measured over 24 hrs by ThT-based fluorescence spectroscopic method

[8] = molecular target: T2, Amyloid-beta precursor protein; remark: listed apart in the source
Description: Inhibition of HFIP-induced human recombinant amyloid beta (1 to 42 residues) aggregation expressed in Escherichia coli measured over 24 hrs by ThT-based fluorescence spectroscopic method

[9] = molecular target: T2, Amyloid-beta precursor protein; test: Inhibition of HFIP-induced human recombinant amyloid beta (1 to 42 residues) aggregation expressed in Escherichia coli at 25 uM measured over 24 hrs by ThT-based fluorescence spectroscopic method relative to control
[10] = molecular target: T1, Cholinesterase; test: Potency index, ratio of donepezil IC50 to test compound IC50 for human BuChE
[11] = molecular target: T2, Amyloid-beta precursor protein; test: Potency index, ratio of curcumin IC50 to test compound IC50 for HFIP-induced human recombinant amyloid beta (1 to 40 residues) aggregation
[12] = molecular target: T2, Amyloid-beta precursor protein; test: Inhibition of HFIP-induced human recombinant amyloid beta (1 to 40 residues) aggregation expressed in Escherichia coli assessed as reduction in amyloid beta fibril load measured after 24 hrs by ThT fluorescence assay
[13] = molecular target: T2, Amyloid-beta precursor protein; test: Inhibition of HFIP-induced human recombinant amyloid beta (1 to 40 residues) aggregation expressed in Escherichia coli assessed as reduction in amyloid beta fibril load at 25 uM after 24 hrs by transmission electron microscopic method
[14] = molecular target: T2, Amyloid-beta precursor protein; test: Potency index, ratio of resveratrol IC50 to test compound IC50 for HFIP-induced human recombinant amyloid beta (1 to 42 residues) aggregation
[15] = molecular target: T2, Amyloid-beta precursor protein; test: Potency index, ratio of curcumin IC50 to test compound IC50 for HFIP-induced human recombinant amyloid beta (1 to 42 residues) aggregation
[16] = Potency index, ratio of test compound to resveratrol antioxidant activity assessed as DPPH radical scavenging activity

T2 sequence (P05067 whole entry, the tested form may be a part): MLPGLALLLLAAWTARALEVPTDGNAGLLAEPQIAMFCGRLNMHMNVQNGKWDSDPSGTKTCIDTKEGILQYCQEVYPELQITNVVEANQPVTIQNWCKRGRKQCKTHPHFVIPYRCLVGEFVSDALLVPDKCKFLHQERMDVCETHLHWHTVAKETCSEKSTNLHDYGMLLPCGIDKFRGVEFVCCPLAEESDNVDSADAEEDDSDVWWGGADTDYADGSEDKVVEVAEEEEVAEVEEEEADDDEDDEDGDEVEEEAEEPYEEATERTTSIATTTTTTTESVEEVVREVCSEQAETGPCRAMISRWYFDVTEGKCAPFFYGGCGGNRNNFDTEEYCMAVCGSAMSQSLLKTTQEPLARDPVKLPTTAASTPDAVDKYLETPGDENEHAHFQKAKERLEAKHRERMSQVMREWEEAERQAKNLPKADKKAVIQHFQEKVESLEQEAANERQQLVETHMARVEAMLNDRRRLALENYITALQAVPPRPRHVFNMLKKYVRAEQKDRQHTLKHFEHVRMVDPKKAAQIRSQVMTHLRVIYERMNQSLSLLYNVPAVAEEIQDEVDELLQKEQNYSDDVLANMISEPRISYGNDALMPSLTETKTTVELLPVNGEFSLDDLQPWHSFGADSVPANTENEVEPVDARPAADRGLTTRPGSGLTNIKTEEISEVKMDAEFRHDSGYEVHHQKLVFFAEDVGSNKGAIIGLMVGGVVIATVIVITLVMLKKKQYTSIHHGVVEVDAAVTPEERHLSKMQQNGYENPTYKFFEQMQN
T1 sequence (P06276 whole entry): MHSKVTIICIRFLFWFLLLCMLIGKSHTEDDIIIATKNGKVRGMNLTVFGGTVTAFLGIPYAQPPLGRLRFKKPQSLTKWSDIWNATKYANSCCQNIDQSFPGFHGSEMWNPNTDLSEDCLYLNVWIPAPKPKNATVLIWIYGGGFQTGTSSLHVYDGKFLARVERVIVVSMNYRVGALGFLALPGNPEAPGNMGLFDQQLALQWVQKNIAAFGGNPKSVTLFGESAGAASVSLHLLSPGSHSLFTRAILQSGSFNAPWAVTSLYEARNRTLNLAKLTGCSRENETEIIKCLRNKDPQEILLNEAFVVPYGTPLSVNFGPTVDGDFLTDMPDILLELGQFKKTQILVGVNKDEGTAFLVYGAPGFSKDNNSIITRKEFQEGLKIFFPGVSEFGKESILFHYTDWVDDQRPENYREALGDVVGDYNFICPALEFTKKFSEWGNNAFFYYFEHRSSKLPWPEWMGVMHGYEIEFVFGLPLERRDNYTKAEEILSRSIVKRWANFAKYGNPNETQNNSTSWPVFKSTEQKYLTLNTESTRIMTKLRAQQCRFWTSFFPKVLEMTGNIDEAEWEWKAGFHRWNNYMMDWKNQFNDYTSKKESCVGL
Sequence of Acetylcholinesterase (P22303 whole entry, the tested form may be a part): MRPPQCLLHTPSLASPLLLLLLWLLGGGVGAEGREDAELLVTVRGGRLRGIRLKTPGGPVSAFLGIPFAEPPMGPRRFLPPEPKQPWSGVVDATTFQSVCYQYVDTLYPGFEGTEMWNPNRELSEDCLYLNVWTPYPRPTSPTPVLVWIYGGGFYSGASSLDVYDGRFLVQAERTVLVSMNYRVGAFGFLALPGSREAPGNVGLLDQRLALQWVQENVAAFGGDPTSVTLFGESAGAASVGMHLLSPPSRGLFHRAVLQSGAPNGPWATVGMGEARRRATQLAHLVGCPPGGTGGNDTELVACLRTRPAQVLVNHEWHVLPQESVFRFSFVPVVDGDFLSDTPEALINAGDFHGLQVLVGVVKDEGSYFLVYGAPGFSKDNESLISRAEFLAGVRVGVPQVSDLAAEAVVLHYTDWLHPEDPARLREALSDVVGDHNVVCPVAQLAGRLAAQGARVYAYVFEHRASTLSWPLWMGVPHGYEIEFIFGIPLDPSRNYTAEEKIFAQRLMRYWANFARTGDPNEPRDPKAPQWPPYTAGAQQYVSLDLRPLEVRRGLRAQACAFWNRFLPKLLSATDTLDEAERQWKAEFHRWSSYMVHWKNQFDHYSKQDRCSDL

Structure (SMILES)	IC50 [2] [µM]	IC50 [3] [µM]	inhibition [4] [%]	IC50 [7] [µM]	inhibition [9]	also measured
Cc1c(C)c2c(c(C)c1O)CCC(C)(C(=O)O)O2 (configuration not stated)	–	–	–	–	–	Activity [1]: 99.6%
CNc1nc(NCc2ccccc2)c2ccccc2n1	18.8	8	–	–	–	–
COc1ccc(CCNc2nc(Cl)nc3ccccc23)cc1OC	–	–	> 50	8.2	–	inhibition [5]: Dose-dependent effect; inhibition [6]: Active; IC50 [8]: 13 µM
CCNc1nc(NCc2ccccc2)c2ccccc2n1	15.2	7.5	> 50	7	24%	–
CNc1nc(NCCc2ccccc2)c2ccccc2n1	5	8.7	> 50	2	40%	–
Oc1nc(NCCc2ccccc2)c2ccccc2n1	–	–	> 50	11.2	inactive	Activity [1]: 51.5%
COc1ccc(CCNc2nc(NC(N)=O)nc3ccccc23)cc1OC	> 50	8.7	> 50	14.4	33%	–
Nc1nc(NCCc2ccccc2)nc2ccccc12	–	–	> 50	–	50%	Ratio IC50 [10]: 1.5; inhibition [5]: Dose-dependent effect; inhibition [6]: Active
NC(=O)Cc1nc(NCCc2ccccc2)c2ccccc2n1	3.5	7.3	–	–	–	–
Nc1nc(NCc2ccccc2)c2ccccc2n1	–	–	> 50	–	< 10%	–
c1ccc(CCNc2nc(NC3CC3)nc3ccccc23)cc1	11.4	8.6	> 50	0.79	22%	Ratio IC50 [11]: 4.1; inhibition [12]: Dose-dependent effect; inhibition [13]: Active
Nc1nc(NCCc2ccccc2)c2ccccc2n1	–	–	> 50	–	37%	–
CC(=O)Nc1nc(NCCc2ccccc2)c2ccccc2n1	> 50	7	–	–	–	–
Oc1nc(NCc2ccccc2)c2ccccc2n1	–	–	> 50	0.27	24%	Ratio IC50 [14]: 4; Ratio IC50 [15]: 12; inhibition [12]: Dose-dependent effect; inhibition [13]: Active; Activity [1]: 47%
Oc1ccc(/C=C/c2cc(O)cc(O)c2)cc1	–	–	–	–	–	Activity [1]: 41.9%
COc1ccc(CCNc2ncnc3ccccc23)cc1OC	–	–	> 50	12	36%	–
COc1ccc(CNc2nc(NC3CC3)nc3ccccc23)cc1OC	29.8	7.2	> 50	8.3	20%	–
CNc1nc(NCCc2ccc(OC)c(OC)c2)c2ccccc2n1	4.5	8.5	> 50	6.6	23.1%	inhibition [5]: Dose-dependent effect; inhibition [6]: Active
COc1ccc(CCNc2nc(NC(C)C)nc3ccccc23)cc1OC	7.8	7.6	–	–	–	–
COc1ccc(CNc2nc(NC3CCN(Cc4ccccc4)CC3)nc3ccccc23)cc1OC	–	–	> 50	2.3	27%	Ratio IC50 [11]: 1.3
Clc1nc(NCCc2ccccc2)c2ccccc2n1	–	–	> 50	5	36%	–
COc1ccc(CNc2nc(N)nc3ccccc23)cc1OC	–	–	> 50	8.4	34%	–
CCNc1nc(NCc2ccc(OC)c(OC)c2)c2ccccc2n1	25	6.3	–	–	–	–
COc1ccc(CCNc2nc(N)nc3ccccc23)cc1OC	–	–	> 50	2.7	45%	–
COc1ccc(CNc2nc(NC(C)C)nc3ccccc23)cc1OC	29.8	6.8	–	–	–	–
CNc1nc(NCc2ccc(OC)c(OC)c2)c2ccccc2n1	30.5	7.3	–	–	–	–

Structure (SMILES)	IC50 [2] [µM]	IC50 [3] [µM]	inhibition [4] [%]	IC50 [7] [µM]	inhibition [9]	also measured
COc1ccc(CCNc2nc(CC(N)=O)nc3ccccc23)cc1OC	> 50	12.5	–	–	–	–
CC(=O)Nc1nc(NCc2ccccc2)c2ccccc2n1	> 50	7.5	> 50	1.9	31%	–
COc1ccc(CNc2nc(NC(C)=O)nc3ccccc23)cc1OC	> 50	8.5	> 50	3.1	< 10%	–
CCCNc1nc(NCCc2ccc(OC)c(OC)c2)c2ccccc2n1	24.9	7	> 50	4.3	14%	–
COc1ccc(CCNc2nc(NC(C)=O)nc3ccccc23)cc1OC	> 50	7.4	–	–	–	–
COc1ccc(CCNc2nc(NC3CC3)nc3ccccc23)cc1OC	5.6	7.2	> 50	4.9	25%	–
COc1ccc(CNc2nc(NC(N)=O)nc3ccccc23)cc1OC	> 50	8.6	> 50	8.3	40%	–
Clc1nc(NCc2ccccc2)c2ccccc2n1	–	–	> 50	16.7	22%	–
COc1ccc(CNc2nc(O)nc3ccccc23)cc1OC	–	–	> 50	7.8	< 10%	Activity [1]: 63.4%; Ratio [16]: 1.5
COc1ccc(CCNc2nc(O)nc3ccccc23)cc1OC	–	–	> 50	10.4	32%	Activity [1]: 33.9%
[N-]=[N+]=Nc1nc(NCc2ccccc2)c2ccccc2n1	–	–	> 50	2.6	37%	–
CCNc1nc(NCCc2ccccc2)c2ccccc2n1	3.2	7.6	> 50	1.4	47%	inhibition [12]: Dose-dependent effect; inhibition [13]: Active
c1ccc(CNc2nc(NC3CC3)nc3ccccc23)cc1	22	6.6	> 50	5.7	31%	–
NC(=O)Cc1nc(NCc2ccccc2)c2ccccc2n1	> 50	7.2	–	–	–	–
COc1ccc(CNc2nc(N=[N+]=[N-])nc3ccccc23)cc1OC	–	–	> 50	7.2	< 10%	–
NC(=O)Nc1nc(NCc2ccccc2)c2ccccc2n1	> 50	8.3	> 50	13.3	48%	–
CCCNc1nc(NCCc2ccccc2)c2ccccc2n1	5	7.2	> 50	4.4	33%	–
CC(C)Nc1nc(NCCc2ccccc2)c2ccccc2n1	1.6	7.2	> 50	3.8	inactive	Ratio IC50 [10]: 2.3
c1ccc(CCNc2ncnc3ccccc23)cc1	–	–	> 50	11.9	32%	–
Nc1nc(NCc2ccccc2)nc2ccccc12	–	–	> 50	–	–	Ratio IC50 [11]: 1.2 to 1.4; Ratio IC50 [14]: 1.8; inhibition [5]: Dose-dependent effect; inhibition [6]: Active
CCCNc1nc(NCc2ccccc2)c2ccccc2n1	14.4	7.8	> 50	5	26%	–
CCCNc1nc(NCc2ccc(OC)c(OC)c2)c2ccccc2n1	30.4	5.6	> 50	1.7	inactive	–
CCNc1nc(NCCc2ccc(OC)c(OC)c2)c2ccccc2n1	14	7.5	> 50	2.9	41%	–
CC(C)Nc1nc(NCc2ccccc2)c2ccccc2n1	11.7	6.4	> 50	4.4	13%	–
COc1ccc(CNc2nc(CC(N)=O)nc3ccccc23)cc1OC	> 50	7.4	–	–	–	–
NC(=O)Nc1nc(NCCc2ccccc2)c2ccccc2n1	> 50	7.9	> 50	1	46%	inhibition [12]: Dose-dependent effect; inhibition [13]: Active
